One series concerns Hepatoma cell line HepG2. The series can be described thus: CellTiter-Blue cell proliferation and viability assay, HepG2. In kind it is cell-based. Particulars: Homo sapiens; HepG2, 1% FCS, 72 hours; read-out: IC50 of agent as single agent. The method, then:
(§1) During proliferation assays, all cells were grown in medium containing 1% FCS. […] Treatment was started by the addition of 50 μl of a 2× concentrated drug solution to a final volume of 100 μl. […] After incubating for 72 hours at 37° C., 10 μl of a 1⁄2 dilution of CellTiter-Blue reagent was added to each well and the plates were returned to the incubator for an additional 4 hours. The fluorescence intensity from the CellTiter-Blue reagent is proportional to the number of viable cells and data were recorded (544Ex/590Em) using a POLARstar OMEGA microplate reader (BMG Labteck Sarl). A background control without cells was used as a blank. The positive control of the assay corresponds to the cell proliferation obtained in the absence of drug treatment (100% proliferation). Each sample was done in duplicate, the […] values were transferred to an excel file, the average and standard deviation of the duplicates were calculated and expressed as a percentage of the proliferation obtained in absence of treatment. The results presented are representative of a minimum of 3 experiments.
For orientation: Alamar Blue is a resazurin reagent that responds to reducing activity.

The test system of series [1] is advanced Hepatocellular carcinoma (BCLC stage C). Particulars: BCLC C patients, first line sorafenib; cited from earlier work.
For series [2] the following is noted: clinically achievable concentration; read-out: Approximate Cmax measured in plasma; cited from earlier work.
The subject of series [3] is Hepatoma cell line PLC-PRF5. The series can be described thus: CellTiter-Blue cell proliferation and viability assay, PLC-PRF5. The format is cell-based. Particulars: Homo sapiens, PLC-PRF-5; PLC-PRF5, 1% FCS, 72 hours; read-out: IC50 of agent as single agent. The method, then: as §1

Molecules are shown by their SMILES.

As usually defined, the IC50 is the point on the concentration scale where inhibition reaches its midpoint. `Nc1ccn([C@@H]2O[C@H](CO)[C@@H](O)C2(F)F)c(=O)n1` [GCB, 2′,2′,-dofluoro-2′,-deoxycytidine]: the IC50 with Hepatoma cell line HepG2 was over 100 µM.

On to `COc1cccc2c1C(=O)c1c(O)c3c(c(O)c1C2=O)C[C@@](O)(C(=O)CO)C[C@@H]3O[C@H]1C[C@H](N)[C@H](O)[C@H](C)O1` [DOX], for which the IC50 in the series on Hepatoma cell line HepG2 came out at 5 µM.

On to `CNC(=O)c1cc(Oc2ccc(NC(=O)Nc3ccc(Cl)c(C(F)(F)F)c3)cc2)ccn1` [sorafenib], for which the “median OS” value in series [1] was 9.5 months.

In general, Cmax refers to the highest concentration seen after dosing. For the compound `CCc1c2c(nc3ccc(OC(=O)N4CCC(N5CCCCC5)CC4)cc13)-c1cc3c(c(=O)n1C2)COC(=O)[C@]3(O)CC` [CPT-11], the Cmax in series [2] was 1 to 10 µM. Besides, the IC50 (in the series with Hepatoma cell line HepG2; in series [3]) was 100 µM in each case.

Regarding `COc1cc([C@@H]2c3cc4c(cc3[C@@H](O[C@@H]3O[C@@H]5CO[C@@H](C)O[C@H]5[C@H](O)[C@H]3O)[C@H]3COC(=O)[C@H]23)OCO4)cc(OC)c1O` [VP-16], the Cmax in series [2] is about 34 µM. Further, the IC50 is over 100 µM in the series with Hepatoma cell line HepG2 and 50 µM in series [3].

On to `Cc1ccc(NC(=O)c2ccc(CN3CCN(C)CC3)cc2)cc1Nc1nc(-c2cccnc2)cs1` [masitinib mesilate], for which the IC50 (in the series on Hepatoma cell line HepG2; in series [3]) was over 5 µM in each case.

For `CC[C@]1(O)C[C@H]2CN(CCc3c([nH]c4ccccc34)[C@@](C(=O)OC)(c3cc4c(cc3OC)N(C=O)[C@H]3[C@@](O)(C(=O)OC)[C@H](OC(C)=O)[C@]5(CC)C=CCN6CC[C@]43[C@@H]65)C2)C1` [VINC], the IC50 (in the series with Hepatoma cell line HepG2; in series [3]) was 0.1 to 1 µM each time.

Source of the values: patent publication US20160128999A1 (AB SCIENCE, priority 2014, published 2016).
